According to patent publication US9585892B2, “Solid forms comprising N-(5-tert-butyl-isoxazol-3-yl)-N′-{4-[7-(2-morpholin-4-yl-ethoxy)imidazo[2,1-b][1,3]benzothiazol-2-yl]phenyl}urea, compositions thereof, and uses therewith” (AMBIT BIOSCIENCES CORPORATION, priority 2007, dated 2017):
Entries after “also recorded” stand apart in the source; their conditions may differ. Counter-ions that a name gives are not always drawn. Each block holds one compound with its values, some of them ahead of it.

Assay: Stress experiments (temperature or relative humidity, XRPD after stress)
Format: physicochemical
Procedure: Stress Experiments. Solids were stressed under different temperature or relative humidity (RH) environments for a measured time period. Specific RH values were achieved by placing the sample inside sealed chambers containing saturated salt solutions. The salt solutions were selected and prepared following an ASTM standard procedure. Samples were analyzed by XRPD immediately after removal from the stress environment.
X-ray powder diffraction analyses were performed on an Inel XRG-3000 diffractometer, equipped with a curved position-sensitive detector with a […] of 120°. Real time data was collected using Cu Kα radiation starting at approximately 4 ° 2θ at a resolution of 0.03 ° 2θ. The tube voltage and amperage were set to 40 kV and 30 mA, respectively. […] Samples were prepared for analysis by packing them into thin-walled glass capillaries. Each capillary was mounted onto a goniometer head that is motorized to permit spinning of the capillary during data acquisition. Instrument calibration was performed daily using a silicon reference standard.

[1] = 75% RH, ambient temperature, 5 days
[2] = 75% RH, ambient temperature, 3 days
[3] = 75% RH, ambient temperature, 3 days, listed as Amorphous

XRPD Result after stress (Oven: 80° C., 3 days, listed as F): Disordered + F
SMILES: CC(C)(C)c1cc(NC(=O)Nc2ccc(-c3cn4c(n3)sc3cc(OCCN5CCOCC5)ccc34)cc2)no1 [Form F of the HCl salt of Compound B1, N-(5-tert-butyl-isoxazol-3-yl)-N′-{4-[7-(2-morpholin-4-yl-ethoxy)imidazo[2,1-b][1,3]benzothiazol-2-yl]phenyl}urea]
XRPD Result after stress (Oven: 80° C., 3 days): substantially disordered, but which retains some Form F content

SMILES: CC(C)(C)c1cc(NC(=O)Nc2ccc(-c3cn4c(n3)sc3cc(OCCN5CCOCC5)ccc34)cc2)no1 [Form A of the edisylate salt of Compound B1] [N-(5-tert-butyl-isoxazol-3-yl)-N′-{4-[7-(2-morpholin-4-yl-ethoxy)imidazo[2,1-b][1,3]benzothiazol-2-yl]phenyl}urea]
deliquescence upon storage (75% RH, 7 days): does not deliquesce; also recorded: did not deliquesce

SMILES: CC(C)(C)c1cc(NC(=O)Nc2ccc(-c3cn4c(n3)sc3cc(OCCN5CCOCC5)ccc34)cc2)no1 [Form B of the esylate salt of Compound B1] [N-(5-tert-butyl-isoxazol-3-yl)-N′-{4-[7-(2-morpholin-4-yl-ethoxy)imidazo[2,1-b][1,3]benzothiazol-2-yl]phenyl}urea]
deliquescence upon storage (75% RH, 7 days): does not deliquesce; also recorded: did not deliquesce

SMILES: CC(C)(C)c1cc(NC(=O)Nc2ccc(-c3cn4c(n3)sc3cc(OCCN5CCOCC5)ccc34)cc2)no1 [Form B of the napsylate salt of Compound B1] [N-(5-tert-butyl-isoxazol-3-yl)-N′-{4-[7-(2-morpholin-4-yl-ethoxy)imidazo[2,1-b][1,3]benzothiazol-2-yl]phenyl}urea]
deliquescence upon storage (75% RH, 7 days): does not deliquesce; also recorded: did not deliquesce

XRPD Result after stress (Oven: 80° C., 3 days): Form D
SMILES: CC(C)(C)c1cc(NC(=O)Nc2ccc(-c3cn4c(n3)sc3cc(OCCN5CCOCC5)ccc34)cc2)no1 [Form D of the HCl salt of Compound B1, N-(5-tert-butyl-isoxazol-3-yl)-N′-{4-[7-(2-morpholin-4-yl-ethoxy)imidazo[2,1-b][1,3]benzothiazol-2-yl]phenyl}urea]

SMILES: CC(C)(C)c1cc(NC(=O)Nc2ccc(-c3cn4c(n3)sc3cc(OCCN5CCOCC5)ccc34)cc2)no1 [Form A of the HBr salt of Compound B1, N-(5-tert-butyl-isoxazol-3-yl)-N′-{4-[7-(2-morpholin-4-yl-ethoxy)imidazo[2,1-b][1,3]benzothiazol-2-yl]phenyl}urea]
deliquescence upon storage (75% RH, 4 days): does not deliquesce; also recorded: did not deliquesce

SMILES: CC(C)(C)c1cc(NC(=O)Nc2ccc(-c3cn4c(n3)sc3cc(OCCN5CCOCC5)ccc34)cc2)no1 [Form B of the besylate salt of Compound B1] [N-(5-tert-butyl-isoxazol-3-yl)-N′-{4-[7-(2-morpholin-4-yl-ethoxy)imidazo[2,1-b][1,3]benzothiazol-2-yl]phenyl}urea]
deliquescence upon storage (75% RH, 7 days): does not deliquesce; also recorded: did not deliquesce

SMILES: CC(C)(C)c1cc(NC(=O)Nc2ccc(-c3cn4c(n3)sc3cc(OCCN5CCOCC5)ccc34)cc2)no1 [Form B of the tosylate salt of Compound B1] [N-(5-tert-butyl-isoxazol-3-yl)-N′-{4-[7-(2-morpholin-4-yl-ethoxy)imidazo[2,1-b][1,3]benzothiazol-2-yl]phenyl}urea]
deliquescence upon storage [1]: does not deliquesce; also recorded: did not deliquesce

SMILES: CC(C)(C)c1cc(NC(=O)Nc2ccc(-c3cn4c(n3)sc3cc(OCCN5CCOCC5)ccc34)cc2)no1 [Form A of the napsylate salt of Compound B1] [N-(5-tert-butyl-isoxazol-3-yl)-N′-{4-[7-(2-morpholin-4-yl-ethoxy)imidazo[2,1-b][1,3]benzothiazol-2-yl]phenyl}urea]
deliquescence upon storage (75% RH, 7 days): does not deliquesce; also recorded: did not deliquesce

XRPD Result after stress [2]: remains unchanged
water corresponding to the weight gain [2]: about 4.3 molar equivalents of water
weight gain [2]: about 12.3%
XRPD Result after stress [3]: Amorphous
weight gain [3]: white solid, irregular particles, 11.8%
XRPD Result after stress (Oven: 40° C., 8 days): remains unchanged
XRPD Result after stress (Oven: 40° C., 8 days, listed as Amorphous): Amorphous
SMILES: CC(C)(C)c1cc(NC(=O)Nc2ccc(-c3cn4c(n3)sc3cc(OCCN5CCOCC5)ccc34)cc2)no1 [N-(5-tert-butyl-isoxazol-3-yl)-N′-{4-[7-(2-morpholin-4-yl-ethoxy)imidazo[2,1-b][1,3]benzothiazol-2-yl]phenyl}urea]
deliquescence upon storage [2]: does not deliquesce; also recorded: did not deliquesce

SMILES: CC(C)(C)c1cc(NC(=O)Nc2ccc(-c3cn4c(n3)sc3cc(OCCN5CCOCC5)ccc34)cc2)no1 [Form A of the mesylate salt of Compound B1] [N-(5-tert-butyl-isoxazol-3-yl)-N′-{4-[7-(2-morpholin-4-yl-ethoxy)imidazo[2,1-b][1,3]benzothiazol-2-yl]phenyl}urea]
deliquescence upon storage [1]: does not deliquesce; also recorded: did not deliquesce

SMILES: CC(C)(C)c1cc(NC(=O)Nc2ccc(-c3cn4c(n3)sc3cc(OCCN5CCOCC5)ccc34)cc2)no1 [Form B of the mesylate salt of Compound B1] [N-(5-tert-butyl-isoxazol-3-yl)-N′-{4-[7-(2-morpholin-4-yl-ethoxy)imidazo[2,1-b][1,3]benzothiazol-2-yl]phenyl}urea]
deliquescence upon storage (75% RH, 4 days): does not deliquesce; also recorded: did not deliquesce

SMILES: CC(C)(C)c1cc(NC(=O)Nc2ccc(-c3cn4c(n3)sc3cc(OCCN5CCOCC5)ccc34)cc2)no1 [Form C of the sulfate salt of Compound B1] [N-(5-tert-butyl-isoxazol-3-yl)-N′-{4-[7-(2-morpholin-4-yl-ethoxy)imidazo[2,1-b][1,3]benzothiazol-2-yl]phenyl}urea]
deliquescence upon storage (75% RH, 7 days): does not deliquesce; also recorded: did not deliquesce
